Test results published in US10681909B2, “Herbicidal triazoles” (FMC Corporation, priority 2014, dated 2020).

Tests used:
[1] = system: foxtail, giant; assay: Test A preemergence; format: in vivo, Setaria faberii; conditions: 0 to 100 scale (0 no effect, 100 complete control)
How it was run: (§1)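 Pre- and postemergence spray tests in a loam soil–sand mixture: seeded soil received a directed spray, while established seedlings 2–10 cm high at the one- to two-leaf stage were treated over the top. Compounds were carried in non-phytotoxic solvent with surfactant.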

[2] = system: oilseed rape; assay: Test C postemergence; format: in vivo, Brassica napus
How it was run: (§2)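 Test chemicals in a non-phytotoxic solvent mixture with surfactant were applied to pots of plants at 2 to 18 cm (1- to 4-leaf stage) for postemergence treatment, grown in a peat-based medium with vermiculite, starter nutrients and dolomitic limestone. Preemergence treatment was to seeds freshly planted in loam soil mixed with sand.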

[3] = system: ragweed; assay: Test C postemergence; format: in vivo, Ambrosia elatior
How it was run: as §2

[4] = system: wheat (winter wheat); assay: Test C postemergence; format: in vivo, Triticum aestivum
How it was run: as §2

[5] = system: lambsquarters; assay: Test C postemergence; format: in vivo, Chenopodium album
How it was run: as §2

[6] = system: velvetleaf; assay: Test C postemergence; format: in vivo, Abutilon theophrasti
How it was run: as §2

[7] = system: chickweed; assay: Test C postemergence; format: in vivo, Stellaria media
How it was run: as §2

[8] = system: pigweed; assay: Test C postemergence; format: in vivo, Amaranthus retroflexus
How it was run: as §2

[9] = system: foxtail, giant; assay: Test C postemergence; format: in vivo, Setaria faberii
How it was run: as §2

[10] = system: corn; assay: Test A postemergence; format: in vivo, Zea mays; conditions: 0 to 100 scale (0 no effect, 100 complete control), approx. 10 d
How it was run: as §1

[11] = system: pigweed; assay: Test A postemergence; format: in vivo, Amaranthus retroflexus; conditions: 0 to 100 scale (0 no effect, 100 complete control), approx. 10 d
How it was run: as §1

[12] = system: crabgrass, large; assay: Test C postemergence; format: in vivo, Digitaria sanguinalis
How it was run: as §2

[13] = system: johnsongrass; assay: Test C postemergence; format: in vivo, Sorghum halepense
How it was run: as §2

[14] = system: barnyardgrass; assay: Test B flooded paddy test; format: in vivo, Echinochloa crus-galli; conditions: 250 g ai/ha, applied to paddy water at 2-leaf stage, visual rating after 13 to 15 d, scale 0 (no effect) to 100 (complete control)
How it was run: (§3)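 Pots were flooded to 3 cm above the soil at treatment, and compounds were applied directly into the paddy water. That depth was held throughout. After 13 to 15 d in a greenhouse, plants were rated visually against untreated controls.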

[15] = system: morningglory; assay: Test C postemergence; format: in vivo, Ipomoea coccinea
How it was run: as §2

[16] = system: nutsedge, yellow; assay: Test C postemergence; format: in vivo, Cyperus esculentus
How it was run: as §2

[17] = system: kochia; assay: Test C postemergence; format: in vivo, Kochia scoparia
How it was run: as §2

[18] = system: oat, wild; assay: Test C postemergence; format: in vivo, Avena fatua
How it was run: as §2

[19] = system: rice; assay: Test B flooded paddy test; format: in vivo, Oryza sativa; conditions: 250 g ai/ha, applied to paddy water at 2-leaf stage, visual rating after 13 to 15 d, scale 0 (no effect) to 100 (complete control)
How it was run: as §3

[20] = system: barnyardgrass; assay: Test A postemergence; format: in vivo, Echinochloa crus-galli; conditions: 0 to 100 scale (0 no effect, 100 complete control), approx. 10 d
How it was run: as §1

## CCOc1nc(-c2ccccc2)nn1Cc1ccnc(C(F)(F)F)c1 [Compound 27]
[1]; 125 g ai/ha
  Plant response rating, Foxtail, Giant: 100
[1]; 500 g ai/ha, approx. 10 d
  Plant response rating, Foxtail, Giant: 100
[2]; Oilsee Rape, 250 g ai/ha
  Plant response rating (scale of 0 to 100 where 0 is no effect and 100 is complete control): 90
[2]; Oilseed Rape, 31 g ai/ha
  Plant response rating (scale of 0 to 100 where 0 is no effect and 100 is complete control): 90
[2]; Oilseed Rape, 62 g ai/ha
  Plant response rating (scale of 0 to 100 where 0 is no effect and 100 is complete control): 90
[2]; Oilseed Rape, 125 g ai/ha
  Plant response rating (scale of 0 to 100 where 0 is no effect and 100 is complete control): 90
[3]; 31 g ai/ha
  Plant response rating (scale of 0 to 100 where 0 is no effect and 100 is complete control): 55
[3]; 62 g ai/ha
  Plant response rating (scale of 0 to 100 where 0 is no effect and 100 is complete control): 60
[3]; 125 g ai/ha
  Plant response rating (scale of 0 to 100 where 0 is no effect and 100 is complete control): 25
[3]; 250 g ai/ha
  Plant response rating (scale of 0 to 100 where 0 is no effect and 100 is complete control): 70
[4]; 31 g ai/ha
  Plant response rating (scale of 0 to 100 where 0 is no effect and 100 is complete control): 5
[4]; 62 g ai/ha
  Plant response rating (scale of 0 to 100 where 0 is no effect and 100 is complete control): 5
[4]; 125 g ai/ha
  Plant response rating (scale of 0 to 100 where 0 is no effect and 100 is complete control): 5
[4]; 250 g ai/ha
  Plant response rating (scale of 0 to 100 where 0 is no effect and 100 is complete control): 15
[5]; 31 g ai/ha
  Plant response rating (scale of 0 to 100 where 0 is no effect and 100 is complete control): 85
[5]; 62 g ai/ha
  Plant response rating (scale of 0 to 100 where 0 is no effect and 100 is complete control): 95
[5]; 125 g ai/ha
  Plant response rating (scale of 0 to 100 where 0 is no effect and 100 is complete control): 98
[5]; 250 g ai/ha
  Plant response rating (scale of 0 to 100 where 0 is no effect and 100 is complete control): 98
[6]; 31 g ai/ha
  Plant response rating (scale of 0 to 100 where 0 is no effect and 100 is complete control): 45
[6]; 62 g ai/ha
  Plant response rating (scale of 0 to 100 where 0 is no effect and 100 is complete control): 50
[6]; 125 g ai/ha
  Plant response rating (scale of 0 to 100 where 0 is no effect and 100 is complete control): 60
[6]; 250 g ai/ha
  Plant response rating (scale of 0 to 100 where 0 is no effect and 100 is complete control): 70
[7]; 31 g ai/ha
  Plant response rating (scale of 0 to 100 where 0 is no effect and 100 is complete control): 95
[7]; 62 g ai/ha
  Plant response rating (scale of 0 to 100 where 0 is no effect and 100 is complete control): 90
[7]; 125 g ai/ha
  Plant response rating (scale of 0 to 100 where 0 is no effect and 100 is complete control): 90
[7]; 250 g ai/ha
  Plant response rating (scale of 0 to 100 where 0 is no effect and 100 is complete control): 90
[8]; 31 g ai/ha
  Plant response rating (scale of 0 to 100 where 0 is no effect and 100 is complete control): 85
[8]; 62 g ai/ha
  Plant response rating (scale of 0 to 100 where 0 is no effect and 100 is complete control): 85
[8]; 125 g ai/ha
  Plant response rating (scale of 0 to 100 where 0 is no effect and 100 is complete control): 95
[8]; 250 g ai/ha
  Plant response rating (scale of 0 to 100 where 0 is no effect and 100 is complete control): 95
[9]; 31 g ai/ha
  Plant response rating (scale of 0 to 100 where 0 is no effect and 100 is complete control): 5
[9]; 62 g ai/ha
  Plant response rating (scale of 0 to 100 where 0 is no effect and 100 is complete control): 10
[9]; 125 g ai/ha
  Plant response rating (scale of 0 to 100 where 0 is no effect and 100 is complete control): 10
[9]; 250 g ai/ha
  Plant response rating (scale of 0 to 100 where 0 is no effect and 100 is complete control): 15
[10]; 125 g ai/ha
  Plant response rating, Corn: 60
[10]; 500 g ai/ha
  Plant response rating, Corn: 70
[11]; 125 g ai/ha
  Plant response rating, Pigweed: 100
[11]; 500 g ai/ha
  Plant response rating, Pigweed: 100
[12]; 31 g ai/ha
  Plant response rating (scale of 0 to 100 where 0 is no effect and 100 is complete control): 10
[12]; 62 g ai/ha
  Plant response rating (scale of 0 to 100 where 0 is no effect and 100 is complete control): 20
[12]; 125 g ai/ha
  Plant response rating (scale of 0 to 100 where 0 is no effect and 100 is complete control): 15
[12]; 250 g ai/ha
  Plant response rating (scale of 0 to 100 where 0 is no effect and 100 is complete control): 45
[13]; 31 g ai/ha
  Plant response rating (scale of 0 to 100 where 0 is no effect and 100 is complete control): 5
[13]; 62 g ai/ha
  Plant response rating (scale of 0 to 100 where 0 is no effect and 100 is complete control): 45
[13]; 125 g ai/ha
  Plant response rating (scale of 0 to 100 where 0 is no effect and 100 is complete control): 100
[14]
  Plant response rating, Barnyardgrass, Flood: 50
[15]; 31 g ai/ha
  Plant response rating (scale of 0 to 100 where 0 is no effect and 100 is complete control): 85
[15]; 62 g ai/ha
  Plant response rating (scale of 0 to 100 where 0 is no effect and 100 is complete control): 80
[15]; 125 g ai/ha
  Plant response rating (scale of 0 to 100 where 0 is no effect and 100 is complete control): 90
[15]; 250 g ai/ha
  Plant response rating (scale of 0 to 100 where 0 is no effect and 100 is complete control): 85
[16]; 31 g ai/ha
  Plant response rating (scale of 0 to 100 where 0 is no effect and 100 is complete control): 5
[16]; 62 g ai/ha
  Plant response rating (scale of 0 to 100 where 0 is no effect and 100 is complete control): 5
[16]; 125 g ai/ha
  Plant response rating (scale of 0 to 100 where 0 is no effect and 100 is complete control): 10
[16]; 250 g ai/ha
  Plant response rating (scale of 0 to 100 where 0 is no effect and 100 is complete control): 10
[17]; 31 g ai/ha
  Plant response rating (scale of 0 to 100 where 0 is no effect and 100 is complete control): 95
[17]; 62 g ai/ha
  Plant response rating (scale of 0 to 100 where 0 is no effect and 100 is complete control): 95
[17]; 125 g ai/ha
  Plant response rating (scale of 0 to 100 where 0 is no effect and 100 is complete control): 95
[17]; 250 g ai/ha
  Plant response rating (scale of 0 to 100 where 0 is no effect and 100 is complete control): 95
[18]; 31 g ai/ha
  Plant response rating (scale of 0 to 100 where 0 is no effect and 100 is complete control): 10
[18]; 62 g ai/ha
  Plant response rating (scale of 0 to 100 where 0 is no effect and 100 is complete control): 10
[18]; 125 g ai/ha
  Plant response rating (scale of 0 to 100 where 0 is no effect and 100 is complete control): 25
[18]; 250 g ai/ha
  Plant response rating (scale of 0 to 100 where 0 is no effect and 100 is complete control): 40
[19]
  Plant response rating, Rice, Flood: 30
[20]; 125 g ai/ha
  Plant response rating, Barnyardgrass: 90
[20]; 500 g ai/ha
  Plant response rating, Barnyardgrass: 90
